Measured values reported in patent US20210255193A1, “LYSINE REACTIVE PROBES AND USES THEREOF” (The Scripps Research Institute, priority 2017, published 2021).

Key:
Test in all cases: competitive isoTOP-ABPP
Type in all cases: binding
[1] = target: T1, DYNC1H1 Cytoplasmic dynein 1 heavy chain 1 (Homo sapiens, UniProt Q14204); conditions: for isoTOP-ABPP ratio (R) at liganded lysine Q14204_K1649: 50 uM, in vitro, sol, 231
T1 construct: isoTOP-ABPP experiments performed in cell lysates (in vitro); endogenous in cells; host or cells: soluble proteome of human cancer cell lines (MDA-MB-231, Ramos, Jurkat)
Outline: (§1)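 Lysine engagement is reported as R, the MS1 peak-area ratio of heavy-tagged DMSO to light-tagged compound samples. Final fragment concentrations were 50 μM for activated esters and 100 μM for guanidinylating agents; STP-alkyne probe 0.1 mM, 1 h.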

EEF2 Elongation factor 2 = target: T2, EEF2 Elongation factor 2 (Homo sapiens, UniProt P13639); conditions: for isoTOP-ABPP ratio (R) at liganded lysine P13639_K235 / isoTOP-ABPP ratio (R) at liganded lysine P13639_K318: sol, 231
T2 construct: isoTOP-ABPP experiments performed in cell lysates (in vitro); endogenous in cells; host or cells: soluble proteome of human cancer cell lines (MDA-MB-231; Ramos and Jurkat also prepared)
Outline: as §1

[2] = target: T3, ERAP1 Endoplasmic reticulum aminopeptidase 1 (Homo sapiens, UniProt Q9NZ08); conditions: for isoTOP-ABPP ratio (R) at liganded lysine Q9NZ08_K685: sol, 231
T3 construct: endogenous in cells; host or cells: MDA-MB-231 lysate
T3 sequence (Q9NZ08 whole entry): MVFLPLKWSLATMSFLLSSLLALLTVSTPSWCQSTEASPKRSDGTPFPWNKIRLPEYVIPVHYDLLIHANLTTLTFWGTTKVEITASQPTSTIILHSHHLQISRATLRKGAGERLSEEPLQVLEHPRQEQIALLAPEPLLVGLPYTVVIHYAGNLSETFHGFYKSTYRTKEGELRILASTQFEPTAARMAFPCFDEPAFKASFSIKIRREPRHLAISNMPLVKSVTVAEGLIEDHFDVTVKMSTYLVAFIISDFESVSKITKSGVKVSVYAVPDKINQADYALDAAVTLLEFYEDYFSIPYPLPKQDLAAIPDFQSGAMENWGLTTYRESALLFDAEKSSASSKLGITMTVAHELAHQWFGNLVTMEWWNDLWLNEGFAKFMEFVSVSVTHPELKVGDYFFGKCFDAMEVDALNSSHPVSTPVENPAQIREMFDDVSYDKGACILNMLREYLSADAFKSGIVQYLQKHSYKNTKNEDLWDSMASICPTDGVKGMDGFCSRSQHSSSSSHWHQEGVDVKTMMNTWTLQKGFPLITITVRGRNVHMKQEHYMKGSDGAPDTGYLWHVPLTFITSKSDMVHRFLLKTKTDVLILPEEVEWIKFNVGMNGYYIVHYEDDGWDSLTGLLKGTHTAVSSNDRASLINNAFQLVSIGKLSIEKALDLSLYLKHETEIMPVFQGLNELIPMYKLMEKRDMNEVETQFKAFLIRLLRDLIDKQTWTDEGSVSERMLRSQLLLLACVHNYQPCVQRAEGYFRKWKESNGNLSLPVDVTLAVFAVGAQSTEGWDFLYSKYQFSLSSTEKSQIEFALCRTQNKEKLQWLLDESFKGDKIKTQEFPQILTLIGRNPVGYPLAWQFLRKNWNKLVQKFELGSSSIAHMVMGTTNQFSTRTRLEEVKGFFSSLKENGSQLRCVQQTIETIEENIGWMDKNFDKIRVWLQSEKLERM
Outline: as §1

[3] = target: T4, GLUD1 Glutamate dehydrogenase 1, mitochondrial (Homo sapiens, UniProt P00367); conditions: for isoTOP-ABPP ratio (R) at liganded lysine P00367_K480: sol, 231; for isoTOP-ABPP ratio, lysine P00367_K480: possible other lysine P00367_K477
T4 construct: isoTOP-ABPP experiments performed in cell lysates (in vitro); endogenous in cells; host or cells: MDA-MB-231 soluble lysate
T4 sequence (P00367 54-558): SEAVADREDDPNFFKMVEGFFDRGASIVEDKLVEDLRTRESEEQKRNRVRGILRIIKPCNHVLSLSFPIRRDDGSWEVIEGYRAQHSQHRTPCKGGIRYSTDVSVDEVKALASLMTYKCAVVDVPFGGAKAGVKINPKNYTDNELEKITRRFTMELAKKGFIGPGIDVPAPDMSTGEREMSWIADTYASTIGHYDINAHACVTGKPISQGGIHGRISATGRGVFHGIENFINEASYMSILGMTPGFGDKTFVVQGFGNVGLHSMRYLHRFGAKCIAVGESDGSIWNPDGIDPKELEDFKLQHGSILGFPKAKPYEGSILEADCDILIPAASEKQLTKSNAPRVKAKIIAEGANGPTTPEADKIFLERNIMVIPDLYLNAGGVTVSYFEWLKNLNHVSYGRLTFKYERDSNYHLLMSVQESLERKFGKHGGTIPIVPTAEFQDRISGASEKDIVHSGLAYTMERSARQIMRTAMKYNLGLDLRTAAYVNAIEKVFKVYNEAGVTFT
Outline: as §1

[4] = target: T5, KIAA1967 DBIRD complex subunit KIAA1967 (Homo sapiens, UniProt Q8N163); conditions: for isoTOP-ABPP ratio (R) at liganded lysine Q8N163_K97 / isoTOP-ABPP ratio (R) at liganded lysine Q8N163_K112: sol, 231
T5 construct: isoTOP-ABPP experiments performed in cell lysates (in vitro); endogenous in cells; host or cells: soluble proteome of human cancer cell lines (MDA-MB-231; Ramos and Jurkat also prepared)
T5 sequence (Q8N163 whole entry, one chain of several): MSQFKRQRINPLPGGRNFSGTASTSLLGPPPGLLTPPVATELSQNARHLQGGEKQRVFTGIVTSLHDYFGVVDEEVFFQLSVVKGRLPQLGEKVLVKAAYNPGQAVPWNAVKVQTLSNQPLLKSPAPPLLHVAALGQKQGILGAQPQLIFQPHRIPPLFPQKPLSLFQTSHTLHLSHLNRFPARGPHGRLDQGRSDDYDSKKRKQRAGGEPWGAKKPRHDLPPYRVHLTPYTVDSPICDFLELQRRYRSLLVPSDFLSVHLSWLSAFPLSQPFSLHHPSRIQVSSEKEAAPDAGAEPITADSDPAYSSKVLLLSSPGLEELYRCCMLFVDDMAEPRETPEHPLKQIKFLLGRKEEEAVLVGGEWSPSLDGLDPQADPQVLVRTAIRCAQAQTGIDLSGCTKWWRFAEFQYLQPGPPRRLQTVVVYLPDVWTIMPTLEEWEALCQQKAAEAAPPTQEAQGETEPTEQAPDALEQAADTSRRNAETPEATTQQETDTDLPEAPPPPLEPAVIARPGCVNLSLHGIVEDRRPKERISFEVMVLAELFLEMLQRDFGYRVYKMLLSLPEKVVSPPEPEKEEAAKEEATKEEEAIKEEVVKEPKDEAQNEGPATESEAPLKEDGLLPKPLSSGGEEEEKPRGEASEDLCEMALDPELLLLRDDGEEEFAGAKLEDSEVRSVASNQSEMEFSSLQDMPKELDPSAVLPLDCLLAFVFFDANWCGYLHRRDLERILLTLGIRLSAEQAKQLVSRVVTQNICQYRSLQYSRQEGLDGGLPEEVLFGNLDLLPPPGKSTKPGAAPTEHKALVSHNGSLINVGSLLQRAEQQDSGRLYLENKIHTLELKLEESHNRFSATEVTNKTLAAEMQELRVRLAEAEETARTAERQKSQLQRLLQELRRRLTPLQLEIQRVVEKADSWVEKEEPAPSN
Outline: as §1

STRN3 Striatin-3 = target: T6, STRN3 Striatin-3 (Homo sapiens, UniProt Q13033); conditions: for isoTOP-ABPP ratio (R) at liganded lysine Q13033_K755: sol, 231
T6 construct: isoTOP-ABPP experiments performed in cell lysates (in vitro); endogenous in cells; host or cells: soluble proteome of human cancer cell lines (MDA-MB-231, Ramos, Jurkat)
T6 sequence (Q13033 1-797): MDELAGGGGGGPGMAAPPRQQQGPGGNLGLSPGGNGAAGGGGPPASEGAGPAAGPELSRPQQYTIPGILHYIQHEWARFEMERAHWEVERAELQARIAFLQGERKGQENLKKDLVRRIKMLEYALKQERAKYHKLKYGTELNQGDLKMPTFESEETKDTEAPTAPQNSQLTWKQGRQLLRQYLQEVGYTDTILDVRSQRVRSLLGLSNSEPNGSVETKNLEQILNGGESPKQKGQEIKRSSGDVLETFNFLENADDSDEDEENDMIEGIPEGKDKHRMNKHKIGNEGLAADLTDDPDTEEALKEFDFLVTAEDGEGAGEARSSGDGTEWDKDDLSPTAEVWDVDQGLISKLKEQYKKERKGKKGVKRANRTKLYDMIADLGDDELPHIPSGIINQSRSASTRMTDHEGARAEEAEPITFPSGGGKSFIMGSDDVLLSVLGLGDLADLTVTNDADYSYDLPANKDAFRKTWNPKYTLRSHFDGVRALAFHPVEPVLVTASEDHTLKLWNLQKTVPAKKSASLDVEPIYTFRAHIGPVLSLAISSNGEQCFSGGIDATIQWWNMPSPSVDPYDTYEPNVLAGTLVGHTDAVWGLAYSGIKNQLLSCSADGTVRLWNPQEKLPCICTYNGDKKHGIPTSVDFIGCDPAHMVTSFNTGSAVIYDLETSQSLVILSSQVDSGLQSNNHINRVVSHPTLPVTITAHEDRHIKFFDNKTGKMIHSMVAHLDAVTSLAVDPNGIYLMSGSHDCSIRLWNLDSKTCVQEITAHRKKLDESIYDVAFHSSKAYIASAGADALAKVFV
Outline: as §1

[5] = target: T7, NAA25 N-alpha-acetyltransferase 25, NatB auxiliary subunit (Homo sapiens, UniProt Q14CX7); conditions: 50 uM, 231 sol, in vitro
T7 construct: isoTOP-ABPP experiments performed in cell lysates (in vitro); endogenous in cells; host or cells: soluble proteome of human cancer cell lines (MDA-MB-231; Ramos and Jurkat also prepared)
T7 sequence (Q14CX7 whole entry): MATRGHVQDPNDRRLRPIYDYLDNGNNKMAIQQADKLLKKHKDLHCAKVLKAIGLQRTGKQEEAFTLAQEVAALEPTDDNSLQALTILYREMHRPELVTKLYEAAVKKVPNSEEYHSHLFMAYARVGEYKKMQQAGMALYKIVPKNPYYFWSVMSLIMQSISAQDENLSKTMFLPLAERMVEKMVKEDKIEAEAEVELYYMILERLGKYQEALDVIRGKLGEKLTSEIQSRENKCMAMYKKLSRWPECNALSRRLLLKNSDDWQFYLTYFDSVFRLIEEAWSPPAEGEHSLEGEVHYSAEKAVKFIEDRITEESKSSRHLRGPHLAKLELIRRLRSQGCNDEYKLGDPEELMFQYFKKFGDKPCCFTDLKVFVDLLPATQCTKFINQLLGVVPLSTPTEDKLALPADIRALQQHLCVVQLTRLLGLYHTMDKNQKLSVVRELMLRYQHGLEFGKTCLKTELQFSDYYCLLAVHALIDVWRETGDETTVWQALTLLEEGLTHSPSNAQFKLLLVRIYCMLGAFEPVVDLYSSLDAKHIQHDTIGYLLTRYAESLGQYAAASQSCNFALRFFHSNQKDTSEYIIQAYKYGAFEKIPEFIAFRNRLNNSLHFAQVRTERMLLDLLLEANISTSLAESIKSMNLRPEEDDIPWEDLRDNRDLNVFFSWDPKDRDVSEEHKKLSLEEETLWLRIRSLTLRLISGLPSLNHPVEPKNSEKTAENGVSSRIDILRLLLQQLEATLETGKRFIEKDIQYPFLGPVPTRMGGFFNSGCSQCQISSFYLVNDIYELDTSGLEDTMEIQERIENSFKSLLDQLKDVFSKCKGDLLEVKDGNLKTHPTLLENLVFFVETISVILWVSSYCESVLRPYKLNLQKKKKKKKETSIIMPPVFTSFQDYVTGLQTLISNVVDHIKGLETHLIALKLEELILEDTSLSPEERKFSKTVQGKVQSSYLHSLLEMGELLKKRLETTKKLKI
Outline: as §1

Structure (SMILES)	isoTOP-ABPP ratio (R) at liganded lysine Q14204_K1649 [1]	isoTOP-ABPP ratio (R) at liganded lysine P13639_K235 (EEF2 Elongation factor 2; 50 uM, in vitro)	isoTOP-ABPP ratio (R) at liganded lysine P13639_K318 (EEF2 Elongation factor 2; 50 uM, in vitro)	isoTOP-ABPP ratio (R) at liganded lysine Q9NZ08_K685 ([2]; 50 uM, in vitro)	isoTOP-ABPP ratio (R) at liganded lysine P00367_K480 ([3]; 50 uM, in vitro)	isoTOP-ABPP ratio (R) at liganded lysine Q8N163_K97 ([4]; 50 uM, in vitro)	isoTOP-ABPP ratio (R) at liganded lysine Q8N163_K112 ([4]; 50 uM, in vitro)	isoTOP-ABPP ratio (R) at liganded lysine Q13033_K755 (STRN3 Striatin-3; 50 uM, in vitro)	other results
CC(=O)Oc1ccc([N+](=O)[O-])cc1[N+](=O)[O-] [fragment 43, 2,4-Dinitrophenyl acetate]	0.9	1.1	1.2	1.1	3.9	0.9	1.0	–	–
O=C(Oc1ccc([N+](=O)[O-])cc1[N+](=O)[O-])C(c1ccccc1)(c1ccccc1)c1ccccc1 [fragment 42, 2,4-Dinitrophenyl 2,2,2-triphenylacetate]	0.8	1.0	1.0	1.0	1.1	1.0	1.1	0.9	–
O=C(CCc1coc2cc(F)ccc2c1=O)Oc1c(F)c(F)c(F)c(F)c1F [fragment 26, Pentafluorophenyl 3-(7-fluoro-4-oxo-4H-chromen-3-yl)propanoate]	–	–	–	–	–	–	–	–	isoTOP-ABPP reactivity ratio at lysine P13639_K235 (EEF2 Elongation factor 2; 50 uM, 231 sol, in vitro): 1.3; isoTOP-ABPP reactivity ratio at lysine P13639_K318 (EEF2 Elongation factor 2; 50 uM, 231 sol, in vitro): 1.1; isoTOP-ABPP reactivity ratio at lysine Q9NZ08_K685 ([2]; 50 uM, 231 sol, in vitro): 1.2; isoTOP-ABPP reactivity ratio at lysine P00367_K480 ([3]; 50 uM, 231 sol, in vitro): 1.6; isoTOP-ABPP reactivity ratio at lysine Q8N163_K97 ([4]; 50 uM, 231 sol, in vitro): 0.9; isoTOP-ABPP reactivity ratio at lysine Q8N163_K112 ([4]; 50 uM, 231 sol, in vitro): 1.1; isoTOP-ABPP reactivity ratio at lysine Q14CX7_K575 [5]: 0.9; isoTOP-ABPP reactivity ratio at lysine Q13033_K755 (STRN3 Striatin-3; 50 uM, 231 sol, in vitro): 1.0
O=C(Oc1ccc([N+](=O)[O-])cc1[N+](=O)[O-])C1CCN(C(=O)OCc2ccccc2)CC1 [fragment 34, 1-Benzyl 4-(2,4-dinitrophenyl) piperidine-1,4-dicarboxylate]	–	1.0	–	1.7	1.3	1.3	1.0	3.7	–
O=C(CC12CC3CC(CC(C3)C1)C2)Oc1ccc([N+](=O)[O-])cc1[N+](=O)[O-] [fragment 38, 2,4-Dinitrophenyl 2-(adamantan-1-yl)acetate]	1.0	0.9	0.9	1.0	1.3	–	–	0.9	–
CC(C)(C)OC(=O)N=C(NC(=O)OC(C)(C)C)n1cccn1 [fragment 50, reference compound]	–	–	–	–	–	–	–	–	isoTOP-ABPP ratio, lysine Q14204_K1649 ([1]; 100 uM_231_sol_in vitro): 1.3; isoTOP-ABPP ratio, lysine P13639_K235 (EEF2 Elongation factor 2; 100 uM_231_sol_in vitro): 7.5; isoTOP-ABPP ratio, lysine P13639_K318 (EEF2 Elongation factor 2; 100 uM_231_sol_in vitro): 1.8; isoTOP-ABPP ratio, lysine Q9NZ08_K685 ([2]; 100 uM_231_sol_in vitro): 20.0; isoTOP-ABPP ratio, lysine P00367_K480 ([3]; 100 uM_231_sol_in vitro): 1.3; isoTOP-ABPP ratio, lysine Q8N163_K97 ([4]; 100 uM_231_sol_in vitro): 3.9; isoTOP-ABPP ratio, lysine Q8N163_K112 ([4]; 100 uM_231_sol_in vitro): 4.7; isoTOP-ABPP ratio, lysine Q13033_K755 (STRN3 Striatin-3; 100 uM_231_sol_in vitro): 1.2
O=C(Oc1c(F)c(F)c(C(F)(F)F)c(F)c1F)c1cc(C(F)(F)F)cc(C(F)(F)F)c1 [fragment 47, 2,3,5,6-Tetrafluoro-4-(trifluoromethyl)phenyl 3,5-bis(trifluoromethyl)benzoate]	–	–	–	–	–	–	–	–	isoTOP-ABPP ratio, lysine Q14204_K1649 ([1]; 50 uM_231_sol_in vitro): 0.9; isoTOP-ABPP ratio, lysine P13639_K235 (EEF2 Elongation factor 2; 50 uM_231_sol_in vitro): 1.1; isoTOP-ABPP ratio, lysine P13639_K318 (EEF2 Elongation factor 2; 50 uM_231_sol_in vitro): 1.1; isoTOP-ABPP ratio, lysine Q9NZ08_K685 ([2]; 50 uM_231_sol_in vitro): 1.3; isoTOP-ABPP ratio, lysine P00367_K480 ([3]; 50 uM_231_sol_in vitro): 2.0; isoTOP-ABPP ratio, lysine Q8N163_K97 ([4]; 50 uM_231_sol_in vitro): 0.9; isoTOP-ABPP ratio, lysine Q8N163_K112 ([4]; 50 uM_231_sol_in vitro): 1.5; isoTOP-ABPP ratio, lysine Q13033_K755 (STRN3 Striatin-3; 50 uM_231_sol_in vitro): 0.9
